In patent US20150105252A1, “SUBSTITUTED PYRAZOLES AS HERBICIDES” (E I DU PONT DE NEMOURS AND COMPANY, priority 2013, published 2015):

Key:
lambsquarters [1] = assay: Test C preemergence; format: in vivo, Chenopodium album; conditions: preemergence; for Plant response rating, Lambsquarters: 125 g ai/ha, scale 0 to 100, 0 = no effect, 100 = complete control
Procedure, shortened: (§1)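 Greenhouse pot test: preemergence application onto freshly seeded loam/sand mix, postemergence application onto seedlings (1–4 leaves, 2–18 cm) in peat-vermiculite substrate. Responses scored visually 13 to 15 days later relative to controls, where 0 means no effect and 100 means complete control; a dash indicates no result.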

blackgrass = assay: Test C postemergence; format: in vivo, Alopecurus myosuroides; conditions: for Plant response rating (scale of 0 to 100 where 0 is no effect and 100 is complete control), Blackgrass: Postemergence, 31 g ai/ha, visually evaluated after 13 to 15 days; for Blackgrass plant response rating / Plant response rating, Blackgrass: postemergence; for Blackgrass plant response rating: 62 g ai/ha, scale 0 to 100
Procedure, shortened: as §1

wheat = assay: Test C postemergence; format: in vivo, Triticum aestivum; conditions: postemergence, 250 g ai/ha; scale 0 to 100 (0 no effect, 100 complete control)
Procedure, shortened: as §1

galium = assay: Test C postemergence; format: in vivo, Galium aparine; conditions: for Plant response rating (scale of 0 to 100 where 0 is no effect and 100 is complete control), Galium: Postemergence, 31 g ai/ha, visually evaluated after 13 to 15 days; for Galium plant response rating / Plant response rating, Galium: postemergence; for Galium plant response rating: 62 g ai/ha, scale 0 to 100
Procedure, shortened: as §1

crabgrass, large = assay: Test C postemergence; format: in vivo, Digitaria sanguinalis; conditions: for Plant response rating (scale of 0 to 100 where 0 is no effect and 100 is complete control), Crabgrass, Large: Postemergence, 31 g ai/ha, visually evaluated after 13 to 15 days; for Crabgrass, Large plant response rating / Plant response rating, Crabgrass, Large: postemergence; for Crabgrass, Large plant response rating: 62 g ai/ha, scale 0 to 100
Procedure, shortened: as §1

lambsquarters [2] = assay: Test C postemergence; format: in vivo, Chenopodium album; conditions: for Plant response rating (scale of 0 to 100 where 0 is no effect and 100 is complete control), Lambsquarters: Postemergence, 31 g ai/ha, visually evaluated after 13 to 15 days; for Lambsquarters plant response rating / Plant response rating, Lambsquarters: postemergence; for Lambsquarters plant response rating: 62 g ai/ha, scale 0 to 100
Procedure, shortened: as §1

morningglory = assay: Test C postemergence; format: in vivo, Ipomoea coccinea; conditions: for Plant response rating (scale of 0 to 100 where 0 is no effect and 100 is complete control), Morningglory: Postemergence, 31 g ai/ha, visually evaluated after 13 to 15 days; for Morningglory plant response rating / Plant response rating, Morningglory: postemergence; for Morningglory plant response rating: 62 g ai/ha, scale 0 to 100
Procedure, shortened: as §1

pigweed = assay: Test C postemergence; format: in vivo, Amaranthus retroflexus; conditions: postemergence; for Pigweed plant response rating: 62 g ai/ha, scale 0 to 100
Procedure, shortened: as §1

barnyardgrass = assay: Test C postemergence; format: in vivo, Echinochloa crus-galli; conditions: for Plant response rating (scale of 0 to 100 where 0 is no effect and 100 is complete control), Barnyardgrass: Postemergence, 31 g ai/ha, visually evaluated after 13 to 15 days; for Barnyardgrass plant response rating / Plant response rating, Barnyardgrass: postemergence; for Barnyardgrass plant response rating: 62 g ai/ha, scale 0 to 100
Procedure, shortened: as §1

waterhemp = assay: Test C postemergence; format: in vivo, Amaranthus rudis; conditions: postemergence, 250 g ai/ha; scale 0 to 100 (0 no effect, 100 complete control)
Procedure, shortened: as §1

oat, wild = assay: Test C postemergence; format: in vivo, Avena fatua; conditions: for Plant response rating (scale of 0 to 100 where 0 is no effect and 100 is complete control), Oat, Wild: Postemergence, 31 g ai/ha, visually evaluated after 13 to 15 days; for Oat, Wild plant response rating / Plant response rating, Oat, Wild: postemergence; for Oat, Wild plant response rating: 62 g ai/ha, scale 0 to 100
Procedure, shortened: as §1

kochia = assay: Test C postemergence; format: in vivo, Kochia scoparia; conditions: for Plant response rating (scale of 0 to 100 where 0 is no effect and 100 is complete control), Kochia: Postemergence, 31 g ai/ha, visually evaluated after 13 to 15 days; for Kochia plant response rating / Plant response rating, Kochia: postemergence; for Kochia plant response rating: 62 g ai/ha, scale 0 to 100
Procedure, shortened: as §1

velvetleaf = assay: Test C postemergence; format: in vivo, Abutilon theophrasti; conditions: postemergence, 250 g ai/ha; scale 0 to 100 (0 no effect, 100 complete control)
Procedure, shortened: as §1

chickweed = assay: Test C postemergence; format: in vivo, Stellaria media; conditions: for Plant response rating (scale of 0 to 100 where 0 is no effect and 100 is complete control), Chickweed: Postemergence, 31 g ai/ha, visually evaluated after 13 to 15 days; for Chickweed plant response rating / Plant response rating, Chickweed: postemergence; for Chickweed plant response rating: 62 g ai/ha, scale 0 to 100
Procedure, shortened: as §1

[3] = 31 g ai/ha, visual rating, scale 0 to 100 (0 no effect, 100 complete control), 13 to 15 days
[4] = 62 g ai/ha, scale 0 to 100 (0 no effect, 100 complete control), 13 to 15 days
[5] = 250 g ai/ha, scale 0 to 100, 0 is no effect, 100 is complete control
[6] = 250 g ai/ha, scale 0 to 100 (0 no effect, 100 complete control)
[7] = 125 g ai/ha, scale 0 to 100, 0 no effect, 100 complete control

CCc1cc(C(=O)NCC2CC2)nn1Cc1ccnc(C(F)(F)F)c1 [Compound 199]
Lambsquarters plant response rating (lambsquarters [1]; [3]): 95
Lambsquarters plant response rating (lambsquarters [1]; [4]): 100
Plant response rating, Lambsquarters (lambsquarters [1]; 13 to 15 days): 100
Lambsquarters plant response rating (lambsquarters [1]; [5]): 98
Plant response rating (scale of 0 to 100 where 0 is no effect and 100 is complete control), Blackgrass (blackgrass): 0
Blackgrass plant response rating (blackgrass): 10
Plant response rating, Blackgrass (blackgrass; [6]): 30
Plant response rating, Blackgrass (blackgrass; [7]): 10
Plant response rating, Wheat (wheat): 5
Plant response rating (scale of 0 to 100 where 0 is no effect and 100 is complete control), Galium (galium): 60
Galium plant response rating (galium): 70
Plant response rating, Galium (galium; [6]): 90
Plant response rating, Galium (galium; [7]): 80
Plant response rating (scale of 0 to 100 where 0 is no effect and 100 is complete control), Crabgrass, Large (crabgrass, large): 10
Crabgrass, Large plant response rating (crabgrass, large): 10
Plant response rating, Crabgrass, Large (crabgrass, large; [6]): 60
Plant response rating, Crabgrass, Large (crabgrass, large; [7]): 40
Plant response rating (scale of 0 to 100 where 0 is no effect and 100 is complete control), Lambsquarters (lambsquarters [2]): 25
Lambsquarters plant response rating (lambsquarters [2]): 85
Plant response rating, Lambsquarters (lambsquarters [2]; [6]): 95
Plant response rating, Lambsquarters (lambsquarters [2]; [7]): 70
Plant response rating (scale of 0 to 100 where 0 is no effect and 100 is complete control), Morningglory (morningglory): 30
Morningglory plant response rating (morningglory): 50
Plant response rating, Morningglory (morningglory; [6]): 85
Plant response rating, Morningglory (morningglory; [7]): 60
Pigweed plant response rating (pigweed): 60
Plant response rating, Pigweed (pigweed; [6]): 90
Plant response rating, Pigweed (pigweed; [7]): 75
Plant response rating (scale of 0 to 100 where 0 is no effect and 100 is complete control), Barnyardgrass (barnyardgrass): 10
Barnyardgrass plant response rating (barnyardgrass): 10
Plant response rating, Barnyardgrass (barnyardgrass; [6]): 45
Plant response rating, Barnyardgrass (barnyardgrass; [7]): 30
Plant response rating, Waterhemp (waterhemp): 75
Plant response rating (scale of 0 to 100 where 0 is no effect and 100 is complete control), Oat, Wild (oat, wild): 5
Oat, Wild plant response rating (oat, wild): 10
Plant response rating, Oat, Wild (oat, wild; [6]): 80
Plant response rating, Oat, Wild (oat, wild; [7]): 30
Plant response rating (scale of 0 to 100 where 0 is no effect and 100 is complete control), Kochia (kochia): 80
Kochia plant response rating (kochia): 85
Plant response rating, Kochia (kochia; [6]): 95
Plant response rating, Kochia (kochia; [7]): 90
Plant response rating, Velvetleaf (velvetleaf): 60
Plant response rating (scale of 0 to 100 where 0 is no effect and 100 is complete control), Chickweed (chickweed): 70
Chickweed plant response rating (chickweed): 60
Plant response rating, Chickweed (chickweed; [6]): 80
Plant response rating, Chickweed (chickweed; [7]): 80

CCc1cc(C(=O)NC2CC2)nn1Cc1ccnc(OCC(F)(F)F)c1 [Compound 200]
Lambsquarters plant response rating (lambsquarters [1]; [3]): 75
Lambsquarters plant response rating (lambsquarters [1]; [4]): 100
Plant response rating, Lambsquarters (lambsquarters [1]; 13 to 15 days): 100
Lambsquarters plant response rating (lambsquarters [1]; [5]): 100
Plant response rating (scale of 0 to 100 where 0 is no effect and 100 is complete control), Blackgrass (blackgrass): 5
Blackgrass plant response rating (blackgrass): 10
Plant response rating, Blackgrass (blackgrass; [6]): 15
Plant response rating, Blackgrass (blackgrass; [7]): 15
Plant response rating, Wheat (wheat): 10
Plant response rating (scale of 0 to 100 where 0 is no effect and 100 is complete control), Galium (galium): 50
Galium plant response rating (galium): 50
Plant response rating, Galium (galium; [6]): 75
Plant response rating, Galium (galium; [7]): 75
Plant response rating (scale of 0 to 100 where 0 is no effect and 100 is complete control), Crabgrass, Large (crabgrass, large): 10
Crabgrass, Large plant response rating (crabgrass, large): 10
Plant response rating, Crabgrass, Large (crabgrass, large; [6]): 25
Plant response rating, Crabgrass, Large (crabgrass, large; [7]): 10
Plant response rating (scale of 0 to 100 where 0 is no effect and 100 is complete control), Lambsquarters (lambsquarters [2]): 55
Lambsquarters plant response rating (lambsquarters [2]): 65
Plant response rating, Lambsquarters (lambsquarters [2]; [6]): 95
Plant response rating, Lambsquarters (lambsquarters [2]; [7]): 65
Plant response rating (scale of 0 to 100 where 0 is no effect and 100 is complete control), Morningglory (morningglory): 65
Morningglory plant response rating (morningglory): 65
Plant response rating, Morningglory (morningglory; [6]): 75
Plant response rating, Morningglory (morningglory; [7]): 75
Pigweed plant response rating (pigweed): 60
Plant response rating, Pigweed (pigweed; [6]): 80
Plant response rating, Pigweed (pigweed; [7]): 75
Plant response rating (scale of 0 to 100 where 0 is no effect and 100 is complete control), Barnyardgrass (barnyardgrass): 0
Barnyardgrass plant response rating (barnyardgrass): 5
Plant response rating, Barnyardgrass (barnyardgrass; [6]): 10
Plant response rating, Barnyardgrass (barnyardgrass; [7]): 5
Plant response rating, Waterhemp (waterhemp): 85
Plant response rating (scale of 0 to 100 where 0 is no effect and 100 is complete control), Oat, Wild (oat, wild): 5
Oat, Wild plant response rating (oat, wild): 10
Plant response rating, Oat, Wild (oat, wild; [6]): 20
Plant response rating, Oat, Wild (oat, wild; [7]): 10
Plant response rating (scale of 0 to 100 where 0 is no effect and 100 is complete control), Kochia (kochia): 90
Kochia plant response rating (kochia): 90
Plant response rating, Kochia (kochia; [6]): 90
Plant response rating, Kochia (kochia; [7]): 90
Plant response rating, Velvetleaf (velvetleaf): 45
Plant response rating (scale of 0 to 100 where 0 is no effect and 100 is complete control), Chickweed (chickweed): 75
Chickweed plant response rating (chickweed): 75
Plant response rating, Chickweed (chickweed; [6]): 90
Plant response rating, Chickweed (chickweed; [7]): 90
